Drawing on patent US3959351A, “Haloalkylbenzoyl esters of di-lower alkylamino alkanols and quaternary lower alkyl salts thereof” (priority 1972, dated 1976), this text covers inhibition and INHIBITION for 16 compounds.

For the experiment, the target named is electric eel cholinesterase (Type V) (Electrophorus electricus, UniProt O42275). The experiment is described as follows: Inhibition of electric eel cholinesterase (Type V) by substituted benzoyl cholines (method of Rappaport et al.). The format is biochemical. The following applies: incubated with enzyme at room temperature (22°) for 40 minutes. As for the experimental part: As stated heretofore, the compounds of the present invention when tested for inhibition of eel cholinesterase show good activity at rather low concentrations. Inhibition of cholinesterase activity of generally recognized as having positive correlation which insecticidal activity.
Sequence of electric eel cholinesterase (Type V) (O42275 24-633): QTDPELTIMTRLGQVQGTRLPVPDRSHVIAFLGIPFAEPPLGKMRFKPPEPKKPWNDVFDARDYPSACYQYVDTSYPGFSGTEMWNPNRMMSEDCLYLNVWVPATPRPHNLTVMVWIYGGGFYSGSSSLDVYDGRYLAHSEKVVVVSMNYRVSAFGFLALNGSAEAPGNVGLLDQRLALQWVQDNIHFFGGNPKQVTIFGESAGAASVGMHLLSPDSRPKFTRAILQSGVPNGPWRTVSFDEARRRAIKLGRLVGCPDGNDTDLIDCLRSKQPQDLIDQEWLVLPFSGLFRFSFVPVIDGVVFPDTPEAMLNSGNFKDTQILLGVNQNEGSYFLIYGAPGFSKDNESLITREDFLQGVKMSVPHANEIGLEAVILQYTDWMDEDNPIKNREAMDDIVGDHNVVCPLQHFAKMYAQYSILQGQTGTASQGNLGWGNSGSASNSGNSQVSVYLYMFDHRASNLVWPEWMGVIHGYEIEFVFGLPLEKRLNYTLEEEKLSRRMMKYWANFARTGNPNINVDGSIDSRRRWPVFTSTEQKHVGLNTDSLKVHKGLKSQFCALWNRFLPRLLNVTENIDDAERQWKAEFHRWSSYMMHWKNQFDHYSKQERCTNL
INHIBITION OF ELECTRIC EEL CHOLINESTERASE (TYPE V)
BY SUBSTITUTED BENZOYL CHOLINES
Activity Measurement Method:
*Reagent incubated with enzyme at room temperature (22°) for 40

The mark [1] stands for this setting: 40 min, Bromomethyl- reagent type, concentration 10^-^4 M.
Setting [2] is: Bromomethyl- reagent type, concentration 10^-^6 M.
The mark [3] stands for this setting: 40 min, Formyl- reagent type, concentration 10^-^4 M.
Where [4] appears, read: Formyl- reagent type, concentration 10^-^3 M.
Where [5] appears, read: Bromomethyl- reagent type, concentration 10^-^4 M.
The mark [6] stands for this setting: Formyl- reagent type, concentration 10^-^4 M.

For the compound `C[N+](C)(C)CCOC(=O)c1cc(CBr)cc(CBr)c1.[I-]` [3,5 Bromomethyl-, 3,5-di(bromomethyl)benzoyl choline iodide], testing at 100 µM under setting [1] gave an inhibition of 90%. The INHIBITION entry under setting [2] is given as “None”.
As to `C[N+](C)(C)CCOC(=O)c1cccc(C=O)c1C=O.[I-]` [2,3 Formyl-, 2,3-diformylbenzoyl choline iodide], the inhibition (as a rule, the share of the control response that was lost under treatment) at 100 µM under setting [3] stood at 50%. Moreover, the INHIBITION entry under setting [4] is recorded as “Complete”.
The matching figures for `C[N+](C)(C)CCOC(=O)c1cc(C=O)ccc1C=O.[I-]` [2,5 Formyl-, 2,5-diformylbenzoyl choline iodide]: 50% and “Complete”.
Under setting [1], `C[N+](C)(C)CCOC(=O)c1cccc(CBr)c1CBr.[I-]` [2,3 Bromomethyl-, 2,3-di(bromomethyl)benzoyl choline iodide] displayed an inhibition at 100 µM of 40%. In addition, the INHIBITION entry under setting [2] was “None”.
Take `C[N+](C)(C)CCOC(=O)c1ccc(CBr)cc1CBr.[I-]` [2,4 Bromomethyl-, 2,4-di(bromomethyl)benzoyl choline iodide]: the INHIBITION entry is, setting by setting: under setting [5], “Complete”; under setting [2], “None”.
The matching figures for `C[N+](C)(C)CCOC(=O)c1ccccc1CBr.[I-]` [ortho Bromomethyl-, o-bromomethyl benzoyl choline iodide]: “None” and “None”.
With `C[N+](C)(C)CCOC(=O)c1cc(C=O)cc(C=O)c1.[I-]` [3,5 Formyl-, 3,5-diformylbenzoyl choline iodide], the INHIBITION entry is recorded as “Complete” under setting [4] and “Complete” under setting [6].
For the compound `C[N+](C)(C)CCOC(=O)c1cccc(C=O)c1.[I-]` [meta Formyl-, m-formylbenzoyl choline iodide], where the note is “40 min, Formyl- reagent type, concentration 10^-^3 M”, the inhibition at 1000 µM stood at 60%. For the same compound, under setting [6], the INHIBITION result was “None”.
As for `C[N+](C)(C)CCOC(=O)c1ccccc1C=O.[I-]` [ortho Formyl-, o-formylbenzoyl choline iodide], the INHIBITION result under setting [4] is “None” and the INHIBITION entry under setting [6] was “None”.
For `C[N+](C)(C)CCOC(=O)c1ccc(CBr)cc1.[I-]` [para Bromomethyl-, para-bromomethyl benzoyl choline iodide], the INHIBITION result reads like this: under setting [5], “Complete”; under setting [2], “None”.
Compound `C[N+](C)(C)CCOC(=O)c1ccc(C=O)c(C=O)c1.[I-]` [3,4 Formyl-, 3,4-diformylbenzoyl choline iodide] showed an inhibition at 100 µM under setting [3] of 25%. Also, under setting [4], the INHIBITION result is reported as “Complete”.
As to `C[N+](C)(C)CCOC(=O)c1cc(CBr)ccc1CBr.[I-]` [2,5 Bromomethyl-, 2,5-di(bromomethyl)benzoyl choline iodide], testing at 100 µM under setting [1] gave an inhibition of 80%. The INHIBITION entry under setting [2] is listed as “None”.
The compound `C[N+](C)(C)CCOC(=O)c1ccc(C=O)cc1C=O.[I-]` [2,4 Formyl-, 2,4-diformylbenzoyl choline iodide] returned an inhibition at 100 µM under setting [3] of 50%. Further, the INHIBITION result under setting [4] is “Complete”.
For `C[N+](C)(C)CCOC(=O)c1ccc(C=O)cc1.[Br-]` [para Formyl-, p-Formyl benzoyl choline bromide], the INHIBITION entry is given as “Complete” under setting [4] and “None” under setting [6].
In the case of `C[N+](C)(C)CCOC(=O)c1ccc(CBr)c(CBr)c1` [3,4 Bromomethyl-, 3,4-di(bromomethyl)benzoyl choline iodide], the inhibition at 100 µM under setting [1] was 90%. Under “40 min, Bromomethyl- reagent type, concentration 10^-^6 M”, this compound had an inhibition at 1 µM of 30%.
Consider `C[N+](C)(C)CCOC(=O)c1cccc(CBr)c1.[I-]` [meta Bromomethyl-, m-bromomethyl benzoyl choline iodide], for which the INHIBITION entry under setting [5] was “None” and the INHIBITION result under setting [2] was “None”.
